The results in this text go back to US6303596A, “Use of taurolidine for treatment of leukemias” (priority 2000, dated 2001).

In one experiment the test system is K-562. Nature of the experiment: LDH release (cell membrane integrity), K-562. In kind it is cell-based. Particulars: Homo sapiens, K562, 4 h, read-out: LDH (% of total). Here is the method: (§1) FIGS. 6A and 6B depict cell viability and growth rates for K562 cell line following taurolidine treatment, in terms of % trypan blue negative cells and % cell number, respectively. Cells were treated with various concentrations of taurolidine for 4 hours in AIM-V+0.01% BCS. After aliquots were collected for LDH assay, the remainder of the culture was rinsed in HBSS and resuspended in RPMI+10% BCS without taurolidine. Counts of trypan blue-negative cells (FIG. 6A), and total cell number (FIG. 6B), were recorded daily thereafter (with the measurement at Day 1 being made immediately after the 4 hour taurolidine treatment). Conditions were: no treatment (open circles); 25 μg/ml taurolidine (closed circles); 50 μg/ml taurolidine (open squares); 100 μg/ml taurolidine (closed squares); and vehicle alone (closed triangles). Doubling times were determined under each condition, and expressed as a percentage of the rate of doubling of untreated cells. […]
(§2) In these experiments, integrity of cell membranes following taurolidine treatment was assessed by exclusion of trypan blue and by measuring the release of LDH in MM6, K-562, HL-60, and REH cells. […] A parallel aliquot of cells was lysed by three cycles of freeze/thaw and the quantity of LDH released was taken to be 100%. […]
(§3) ^a LDH was measured immediately after four hour taurolidine treatment.
(In general: LDH in the medium is a marker of cell lysis.)

Another experiment has as its system REH. Kind of experiment: LDH release (cell membrane integrity), REH. In kind it is cell-based. To be noted: Homo sapiens, 4 h, read-out: LDH (% of total). The protocol: as §1, with “8A” for “6A”, “8B” for “6B”, “REH” for “K562”, “8A),” for “6A),”, “8B),” for “6B),”
as §2, §3

Another experiment relates to MM6 cells. Kind of experiment: growth rate after taurolidine treatment, MM6. In kind it is cell-based, human. The protocol: FIG. 4A and FIG. 4B are graphs depicting cell viability and growth rates following taurolidine treatment as determined by assay procedures. MM6 cells were treated with taurolidine as described in FIG. 3. After aliquots were collected for the lactate dehydrogenase (LDH) assay, the remainder of the culture was rinsed in Hank's balanced salt solution (HBSS) and resuspended in RPMI+10% BCS without taurolidine. Counts of trypan blue-negative cells represented in FIG. 4A and total cell number represented in FIG. 4B were recorded daily thereafter (with the measurement at Day 1 being made immediately after the four hour taurolidine treatment). […]
FIGS. 5A and 5B depict cell viability and growth rates for MM6 cell line following taurolidine treatment, in terms of % trypan blue negative cells and % cell number, respectively. […] Counts of trypan blue-negative cells (FIG. 5A), and total cell number (FIG. 5B), were recorded daily thereafter (with the measurement at Day 1 being made immediately after the 4 hour taurolidine treatment). […] Doubling times were determined under each condition, and expressed as a percentage of the rate of doubling of untreated cells. […]
In these experiments, integrity of cell membranes following taurolidine treatment was assessed by exclusion of trypan blue and by measuring the release of LDH in MM6, K-562, HL-60, and REH cells. […]

Regarding `O=S1(=O)CCN(CN2CCS(=O)(=O)NC2)CN1` [taurolidine, 4,4'-methylenebis(perhydro-1,2,4-thiadiazin 1,1-dioxide)], the cytotoxicity at 50 µg/mL with K-562 (K-562, 50 μg/ml) turned out to be 6%; with REH (50 μg/ml) it was 6%. Besides, the cytotoxicity at 100 µg/mL in the experiment with K-562 (K-562, 100 μg/ml) was 8%; in the experiment with REH (100 μg/ml), 5%. The “growth rate after return to growth medium” value in the experiment on MM6 cells (MM6, 25 μg/ml taurolidine for 4 h) is listed as “growth rates similar to that observed with untreated cells”. Moreover, the “growth after return to growth medium” value with MM6 cells (MM6, 50 μg/ml taurolidine for 4 h) is given as “failed to grow”.
